{"source": "patent US20050171084A1", "about": "“Methods of treatment with lxr modulators” (priority 2002, published 2005)", "key": {"[1]": {"tested_on": "Murine astroglia", "assay": "Cholesterol efflux from astrocytes", "type": "cell-based, mouse", "details": "basal efflux, standard deviation in parentheses, * p<0.05", "protocol": "Murine astroglia were obtained from postnatal day 1 pups. Briefly, pups were decapitated, their brains removed, and the cerebral cortices prepared as described previously (45), except that astrocyte plating media was used (Dulbecco's modified eagle media [DMEM] containing 4 mg/ml glucose, 5% FBS and 5% HS [GibcoBRL or Irvine Scientific], 100 U/ml penecillin/100 μg/ml streptomycin, 25 mM HEPES, and 2-4 mM glutamine). Glia were grown in T75 flasks at a density of approximately 2 brains per flask. Cells were fed once weekly by complete media exchange in maintenance media (DMEM containing 4.5 mg/ml glucose, 10% FBS, 100 U/ml penecillin/100 μg/ml streptomycin, 25 mM HEPES, and 6 mM glutamine). By visual inspection, these cultures were nearly entirely astroglial with <1% contamination with microglia. After 7-14 days in vitro, cells were collected by trypsinization, counted in a hemacytometer, and plated into 6-well plates at 50-100,000 cells per well in maintenance media. […]\nCholesterol efflux assays were performed as described elsewhere (24) with some modifications. […] Two hundred microliters of the culture media supernatant and 200 μl of the cell extract were counted for tritium in 2 ml Packard Ultima Gold Scint. […] Efflux is expressed as percent of the total radiolabeled cholesterol pool present in the cultures."}, "[2]": {"tested_on": "ABCG1", "assay": "ABCG1 gene expression in primary astrocyte cultures (QRT-PCR)", "type": "cell-based, mouse", "details": "Astrocytes", "protocol": "(§1) Total RNA was isolated from tissue and cell culture samples using TRIzol reagent (GibcoBRL). Briefly, tissue samples were thawed directly in 1 ml Trizol/50 mg tissue and homogenized with a polytron. To facilitate recovery of nucleic acid, 100 μg glycogen (Ambion) was added. Cultured cells were lysed in 1 ml Trizol containing 100 μg glycogen per well. Samples were then extracted in chloroform and spun at 4° C. at 11,000×g for 15 min. The aqueous phase was collected and the RNA was precipitated with the addition of isopropanol. The samples were then spun at 11,000×g at 4° C. for 15 min, the pellet washed in 75% ethanol, dried, and dissolved in water. Samples were stored at −70° C. until use.\n(§2) Total RNA samples were diluted to 100 μg/ml and treated with 40 units/ml […] DNAse-I (Ambion) for 30 min at 37° C. followed by inactivation at 75° C. for 5 min. Samples were quantitated by spectrophotometry or with the RiboGreen assay (Molecular Probes) and diluted to a concentration of 10 ng/μl. […] In this system, the probe is degraded by Taq polymerase during the amplification phase, releasing the fluorescent tag from its quenched state; amplification data is expressed as the number of PCR cycles required to elevate the fluorescence signal beyond a threshold intensity level. […]"}, "[3]": {"tested_on": "SREBP-1c", "assay": "SREBP-1c gene expression in primary astrocyte cultures (QRT-PCR)", "type": "cell-based, mouse", "details": "Astrocytes", "protocol": "as §1, §2"}, "[4]": {"tested_on": "ABCG1", "assay": "ABCG1 gene expression in the CNS after oral dosing", "type": "in vivo, C57 B1/6 mice", "details": "oral gavage, Example 1 10 mg kg twice daily, T0901317 50 mg/kg once daily", "protocol": "as §1\n(§3) Total RNA samples were diluted to 100 μg/ml and treated with 40 units/ml […] DNAse-I (Ambion) for 30 min at 37° C. followed by inactivation at 75° C. for 5 min. Samples were quantitated by spectrophotometry or with the RiboGreen assay (Molecular Probes) and diluted to a concentration of 10 ng/μl. Samples were then assayed in duplicate or triplicate 25-μl reactions using 25 ng RNA per reaction with Perkin Elmer chemistry on an ABI Prism 7700 (Perkin Elmer) according to manufacturer's instructions. Gene-specific primers were used at 7.5 or 22.5 pmol per reaction, optimized for each gene examined, and the gene-specific probe was used at 5 pmol per reaction. Primers and probe were synthesized by Keystone Labs (Camarillo, Calif.). In this system, the probe is degraded by Taq polymerase during the amplification phase, releasing the fluorescent tag from its quenched state; amplification data is expressed as the number of PCR cycles required to elevate the fluorescence signal beyond a threshold intensity level. Fold induction values were calculated by subtracting the mean threshold cycle number (Ct) for each treatment group from the mean Ct for the vehicle group and raising 2 to the power of this difference.\n(§4) Adult male C57 B1/6 mice (3 per group) were dosed by oral gavage with the LXR agonists Example 1, T0901317, or vehicle (0.5% methylcellulose). Example 1 was delivered at 10 mg kg twice daily, while T0901317 was administered at 50 mg/kg once daily. After 3 or 7 days' treatment, animals were killed and their brains removed. The cerebellum and both hippocampi were dissected and snap frozen in liquid nitrogen for RNA isolation. Total RNA was prepared from the hippocampus and cerebellum (black bars) and analyzed for gene expression patterns using QRT-PCR (as described above). Expression levels for each gene in each tissue were normalized to the average expression level in the vehicle group. Both LXR agonists enhanced ABCA1 expression relative to the vehicle-treated group, with the effect most pronounced in the cerebellum after 3 days' treatment."}, "[5]": {"tested_on": "SREBP-1c", "assay": "SREBP-1c gene expression in the CNS after oral dosing", "type": "in vivo, C57 B1/6 mice", "details": "oral gavage, Example 1 10 mg kg twice daily, T0901317 50 mg/kg once daily", "protocol": "as §1, §3, §4"}}, "data": [{"smiles": "O=C(O)Cc1cccc(OCCCN(Cc2cccc(C(F)(F)F)c2Cl)CC(c2ccccc2)c2ccccc2)c1", "note": "[Example 1, 2-(3-{3-[[2-Chloro-3-(trifluoromethyl)benzyl](2,2-diphenylethyl)amino]propoxy}-phenyl)acetic Acid]", "values": [{"measurement": "Cholesterol efflux as a percentage of total [3H] cholesterol", "setting": "[1]", "value": "4.722 (0.783)* %"}, {"measurement": "ABCG1 expression normalized to vehicle-treated group (fold induction)", "setting": "[2]", "value": 14.9}, {"measurement": "SREBP-1c expression normalized to vehicle-treated group (fold induction)", "setting": "[3]", "value": 13.9}, {"measurement": "ABCG1 expression normalized to vehicle group", "setting": "[4]; CB (cerebellum), first table", "value": "1.52 (0.073)"}, {"measurement": "ABCG1 expression normalized to vehicle group", "setting": "[4]; CB (cerebellum), second table", "value": "1.17 (0.142)"}, {"measurement": "ABCG1 expression normalized to vehicle group", "setting": "[4]; HC (hippocampus), first table", "value": "1.14 (0.212)"}, {"measurement": "ABCG1 expression normalized to vehicle group", "setting": "[4]; HC (hippocampus), second table", "value": "0.89 (0.045)"}, {"measurement": "SREBP-1c expression normalized to vehicle group", "setting": "[5]; CB (cerebellum), first table", "value": "2.05 (0.427)"}, {"measurement": "SREBP-1c expression normalized to vehicle group", "setting": "[5]; CB (cerebellum), second table", "value": "1.75 (0.236)"}, {"measurement": "SREBP-1c expression normalized to vehicle group", "setting": "[5]; HC (hippocampus), first table", "value": "2.22 (0.600)"}, {"measurement": "SREBP-1c expression normalized to vehicle group", "setting": "[5]; HC (hippocampus), second table", "value": "0.71 (0.327)"}]}, {"smiles": "O=S(=O)(c1ccccc1)N(CC(F)(F)F)c1ccc(C(O)(C(F)(F)F)C(F)(F)F)cc1", "note": "[Example T0901317, N-(2,2,2-trifluoroethyl)-N-[4-(2,2,2-trifluoro-1-hydroxy-1-trifluoromethyl-ethyl)-phenyl]-benzenesulfonamide]", "values": [{"measurement": "Cholesterol efflux as a percentage of total [3H] cholesterol", "setting": "[1]", "value": "4.370 (0.561)* %"}, {"measurement": "ABCG1 expression normalized to vehicle-treated group (fold induction)", "setting": "[2]", "value": 12.5}, {"measurement": "SREBP-1c expression normalized to vehicle-treated group (fold induction)", "setting": "[3]", "value": 20.2}, {"measurement": "ABCG1 expression normalized to vehicle group", "setting": "[4]; CB (cerebellum), first table", "value": "2.31 (0.081)"}, {"measurement": "ABCG1 expression normalized to vehicle group", "setting": "[4]; CB (cerebellum), second table", "value": "1.80 (0.116)"}, {"measurement": "ABCG1 expression normalized to vehicle group", "setting": "[4]; HC (hippocampus), first table", "value": "1.22 (0.098)"}, {"measurement": "ABCG1 expression normalized to vehicle group", "setting": "[4]; HC (hippocampus), second table", "value": "1.37 (0.092)"}, {"measurement": "SREBP-1c expression normalized to vehicle group", "setting": "[5]; CB (cerebellum), first table", "value": "3.44 (0.632)"}, {"measurement": "SREBP-1c expression normalized to vehicle group", "setting": "[5]; CB (cerebellum), second table", "value": "2.97 (0.557)"}, {"measurement": "SREBP-1c expression normalized to vehicle group", "setting": "[5]; HC (hippocampus), first table", "value": "2.68 (0.209)"}, {"measurement": "SREBP-1c expression normalized to vehicle group", "setting": "[5]; HC (hippocampus), second table", "value": "2.16 (0.110)"}]}]}
